“Also recorded” adds a separate entry of the source. No end group written: not given here.

The conditions of series [1]: ref [15],[16]; cited from earlier work. From the text: Hemorphins are endogenous peptides that are produced from beta hemoglobin. Hemorphins of various lengths (4–10 amino acids) have been identified so far. These peptides are mainly produced in the plasma, brain, cerebrospinal fluid, and spinal cord. The decapeptide LVV-hemorphin-7 ([…]) is considered to be the longest form of hemorphin and is found abundantly in the mammalian nervous system. […] Numerous studies have reported various biological activities of hemor ...

Series [2] addresses T1, ACE (Homo sapiens, UniProt P12821).
T1 construct: purchased Dojindo Laboratories ACE Kit-WST
The series can be described thus: In vitro ACE inhibition assay (ACE Kit-WST). Format: biochemical. To be noted: for IC50: ACE Kit-WST, 1 h at 37 °C, absorbance 450 nm, non-linear regression, mean of three independent experiments (n = 3); for Comparison of IC50 (ACE inhibition): n = 3, one-way ANOVA and Sidak's multiple-comparisons test. How it is done: The inhibition of ACE was measured using the ACE Kit-WST (Dojindo Laboratories, Mashiki-machi, Japan). Custom synthesized hemorphin peptides ([…], […], YPWTQRF, and YPWTRRF) were purchased from New England Peptide (Gardner, MA, USA). Indicator working solution and enzyme working solution were prepared according to the manufacturer’s instructions. 10 µL of each dose of hemorphin was added to the wells of a 96-well microplate. 20 µL and 40 µL of deionized water were added in blank 1 and blank 2 wells. 20 µL of the substrate buffer was added to each well, followed by 20 µL of enzyme working solution in all of the sample wells and blank 1. The plate was incubated for 1 h at 37 °C. After the incubation period, 200 µL of indicator working solution was added to each well and then incubated at room temperature for 5 min. After incubation, plate absorbance was measured at 450 nm using Glomax Discover Microplate Reader (Promega, Madison, WI, USA). The inhibition of ACE was calculated using the following equation: Inhibition rate (%) = (Ablank1 − Asample)/(Ablank1 − Ablank2) × 100.
From the obtained data, IC50 was calculated using Prism 7 (GraphPad, San Diego, CA, USA) from a non-linear regression plot of ACE inhibition (%) against peptide concentration (µM).
Nonlinear regression was used to generate dose–response curves in Prism 7 (GraphPad, San Diego, CA, USA). The observed data are presented as mean ± SEM (Standard Error of the Mean). One-way or two-way analysis of variance (ANOVA), as appropriate, were carried out and a comparison of means was performed by Sidak’s multiple-comparisons test to estimate the statistical significance between the different treatments.

For series [3] the following is noted: cited from earlier work. From the text: Angiotensin-I converting enzyme (ACE) is a zinc metallopeptidase that is found in many tissues and biological fluids and it is an important player in regulating RAAS and kallikrein-kinnin system (KKS). There are two main mechanisms by which ACE causes hypertension. Firstly, ACE cleaves two amino acids from the decapeptide angiotensin I to produce the octapeptide angiotensin II, which is a strong vasoconstrictor. Secondly, ACE is involved in the degradation of bradykinnin, a potent vasodilator [5, 6]. ACE is associated with hypertension and remains an important target for the discovery of an ...

The test system of series [4] is ACE. As to conditions: ref [53]; cited from earlier work.
Series [5] addresses T1, ACE. Also noted: method as in 2 sources, one per row (each row's own in cited_ref): ref [54] = [54]; PMID 7945362; doi:10.1006/bbrc.1994.2447; 54. Zhao Q. Sannier F. Garreau I. Guillochon D. Piot J.M. Inhibition and inhibition kinetics of angiotensin converting enzyme activity by hemorphins, isolated from a peptic bovine hemoglobin hydrolysa ||| ref [24] = [24]; PMID 12182948; doi:10.1016/S0196-9781(02)00083-9; 24. Fruitier-Arnaudin I. Cohen M. Bordenave S. Sannier F. Piot J.M. Comparative effects of angiotensin IV and two hemorphins on angiotensin-converting enzyme activity Peptides 2002 23 1465 1470 10.101. As to conditions: ref [54]; cited from earlier work. As to the method: An ACE inhibition assay was performed to evaluate the IC50 of these peptides to investigate this further.

T1 sequence (P12821 30-1306, species assumed): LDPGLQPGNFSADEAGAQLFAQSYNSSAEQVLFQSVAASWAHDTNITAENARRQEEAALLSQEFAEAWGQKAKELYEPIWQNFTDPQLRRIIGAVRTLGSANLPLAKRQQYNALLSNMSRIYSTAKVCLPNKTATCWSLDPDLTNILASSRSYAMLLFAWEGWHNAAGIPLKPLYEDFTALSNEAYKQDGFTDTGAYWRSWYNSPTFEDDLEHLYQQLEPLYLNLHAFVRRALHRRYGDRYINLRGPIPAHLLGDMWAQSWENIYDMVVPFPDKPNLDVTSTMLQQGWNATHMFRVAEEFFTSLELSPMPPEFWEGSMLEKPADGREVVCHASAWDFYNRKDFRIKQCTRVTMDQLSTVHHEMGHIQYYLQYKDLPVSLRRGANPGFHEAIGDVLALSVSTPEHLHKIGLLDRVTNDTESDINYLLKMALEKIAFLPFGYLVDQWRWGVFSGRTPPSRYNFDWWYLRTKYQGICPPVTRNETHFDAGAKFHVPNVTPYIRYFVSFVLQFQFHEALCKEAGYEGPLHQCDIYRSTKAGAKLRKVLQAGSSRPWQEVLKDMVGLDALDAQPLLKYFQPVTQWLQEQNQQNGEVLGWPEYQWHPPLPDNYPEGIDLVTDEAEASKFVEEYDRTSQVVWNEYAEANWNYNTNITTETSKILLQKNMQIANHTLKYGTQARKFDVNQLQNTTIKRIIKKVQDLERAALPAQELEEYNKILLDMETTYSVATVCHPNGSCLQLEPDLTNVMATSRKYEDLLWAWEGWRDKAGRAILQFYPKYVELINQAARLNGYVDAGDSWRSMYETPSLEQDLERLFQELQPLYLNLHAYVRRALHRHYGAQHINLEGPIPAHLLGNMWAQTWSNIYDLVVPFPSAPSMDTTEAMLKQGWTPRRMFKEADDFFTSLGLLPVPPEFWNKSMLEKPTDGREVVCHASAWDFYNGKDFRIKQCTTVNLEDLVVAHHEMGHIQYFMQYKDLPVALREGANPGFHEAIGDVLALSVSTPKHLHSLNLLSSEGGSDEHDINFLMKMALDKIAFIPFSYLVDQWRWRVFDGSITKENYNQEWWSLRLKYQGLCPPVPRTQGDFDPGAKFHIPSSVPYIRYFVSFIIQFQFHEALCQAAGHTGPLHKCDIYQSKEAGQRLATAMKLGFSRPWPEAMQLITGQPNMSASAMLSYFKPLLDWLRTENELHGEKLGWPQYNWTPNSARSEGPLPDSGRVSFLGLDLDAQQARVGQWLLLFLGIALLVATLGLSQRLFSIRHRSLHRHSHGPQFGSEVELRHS

For the compound `CC(C)C[C@H](N)C(=O)N[C@H](C(=O)N[C@H](C(=O)N[C@@H](Cc1ccc(O)cc1)C(=O)N1CCC[C@H]1C(=O)N[C@@H](Cc1c[nH]c2ccccc12)C(=O)N[C@H](C(=O)N[C@@H](CCC(N)=O)C(=O)N[C@@H](CCCNC(=N)N)C(=O)N[C@@H](Cc1ccccc1)C(=O)O)[C@@H](C)O)C(C)C)C(C)C`, the “Stability compared to other hemorphins” value in series [1] was “most stable”. On ACE [2], the IC50 – broadly, the concentration needed to halve the response being measured – amounted to 12.6 µM and the “Comparison of IC50 (ACE inhibition)” value is “significantly lower than that of YPWTQRF (25.894 µM)”.

With `CC(C)C[C@H](N)C(=O)N[C@H](C(=O)N[C@H](C(=O)N[C@@H](Cc1ccc(O)cc1)C(=O)N1CCC[C@H]1C(=O)N[C@@H](Cc1c[nH]c2ccccc12)C(=O)N[C@H](C(=O)N[C@@H](CCCNC(=N)N)C(=O)N[C@@H](CCCNC(=N)N)C(=O)N[C@@H](Cc1ccccc1)C(=O)O)[C@@H](C)O)C(C)C)C(C)C`, on ACE [2], the IC50 came to 6.6 µM; the “Comparison of IC50 (ACE inhibition)” value is “lower than YPWTRRF (9.310 µM); also recorded: the difference between LVVYPWTRRF and YPWTRRF was not significant”. Moreover, on ACE [2] (listed as camel LVV-hemorphin-7), the “Comparison of IC50 (ACE inhibition)” value is “significantly less than non-camel LVV-hemorphin-7 (12.649 µM) (p < 0.05, n = 3)”.

As for `C[C@H](CS)C(=O)N1CCC[C@H]1C(=O)O` [captopril], the Side effects entry in series [3] was “cough, kidney problems, angioedema, and allergic reactions”.

In the case of `C[C@H](N[C@@H](CCc1ccccc1)C(=O)O)C(=O)N1CCC[C@H]1C(=O)O` [enalaprilat], in the series with ACE [4], the “Affinity for ACE compared to lisinopril” value is on record as “lower affinity when compared to lisinopril”.

With VVYPWTQRF, the “ACE inhibitory activity compared to other hemorphins” value at ACE [5] is listed as “the removal of the N-terminus leucine significantly decreased the ACE inhibition activity of VVYPWTQRF in comparison to LVVYPWTQRF”.

In the case of YPWTQRF [YPWTQRF], the 50% inhibitory concentration (IC50) against ACE [2] came out at 25.9 µM.

In turn, YPWTRRF [YPWTRRF] returned an IC50 at ACE [2] of 9.31 µM. Also, the “Comparison of IC50 (ACE inhibition)” value is given as “significantly lower IC50” at ACE [2] and “significantly lower than the non-camel hemorphin-7 (25.894 µM) (p < 0.001, n = 3)” at ACE [2] (listed as camel hemorphin-7).

The values are drawn from PMC7175181 (Biomolecules, 2020).
